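The compound was tested at five concentrations on cells cultured in 96-well plates, with a 48-hour exposure period. The concentration for 50% growth inhibition is given as GI50.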 The source made the active and inactive calls. No stated cut-off is given here; in the data, active = GI50 up to about 1.1 µM and inactive = higher. Non-standard residues stand in square brackets, D forms with d. Residues, ends and D or L forms follow the SMILES beside them. ξ: configuration not given here. ξLac(3-iPr) = CC(C)CC(O)C(=O)O; NMeV = CN[CH](C(=O)O)C(C)C; NMeA = CN[CH](C)C(=O)O; βAla = NCCC(=O)O Bounds are passed on as bounds.

Among the test systems are BT-549; NCI/ADR-RES; DMS-273; LXFL 529; KM-20L2.
Common to all, as to assay: DTP human tumour cell line panel, 48 h

With `O=C(Nc1cccc2ccccc12)c1ccccc1`, the GI50 in the assay with BT-549 and with NCI/ADR-RES was > 100 µM (inactive) throughout. Turning to `Cc1cc(O)c(-c2cc(O)c(C)cc2O)cc1O`, the GI50 in the assay with BT-549 is 12.2 µM (inactive); in the assay on NCI/ADR-RES, 26.4 µM (inactive). For `Clc1c2nc3ccccc3c-2[nH]c2ccccc12`, the results for the GI50 with BT-549 and in the assay on NCI/ADR-RES were 64.1 µM (inactive) and 23.4 µM (inactive), respectively.

With `COC(=O)c1c(C)c2c(c(C)c1O)OC(=O)c1c(C)cc(O)c(C=O)c1O2`, the GI50 in the assay with BT-549 and with NCI/ADR-RES was > 100 µM (inactive) each time. `OCC(O)C1OC2CC1Nc1ccccc1N2` (stereo not drawn): the GI50 in the assay with NCI/ADR-RES is > 100 µM (inactive). `CN1CCN(C2CC(=O)c3c(Cl)sc(Cl)c32)CC1` (stereo not drawn): the results for the GI50 in the assay with BT-549 and in the assay with NCI/ADR-RES were 20.3 µM (inactive) and 16.4 µM (inactive), respectively.

`COc1ncnc2c1cnn2Cc1cn(CCCCO)nn1`: the GI50 in the assay with BT-549 and in the assay on NCI/ADR-RES was > 100 µM (inactive) in each case. With `CCN(CC)CCn1nc(N)c2nc3cc(Cl)ccc3nc21`, the GI50 is > 100 µM (inactive) in the assay with BT-549 and 35.3 µM (inactive) in the assay on NCI/ADR-RES. Turning to `COc1ccc(CC2OC3(CCCCC3)CC3CCCCN32)cc1` (stereo not drawn), the GI50 in the assay with BT-549 was > 100 µM (inactive); with NCI/ADR-RES, 50.1 µM (inactive). For `CS(=O)(=O)OC1CN2CCC1CC2` (stereo not drawn), the GI50 in the assay with BT-549 and with NCI/ADR-RES was > 100 µM (inactive) each time.

Take `Cc1ccc(Cc2n[nH]c(=O)n2Nc2ccccc2)cc1`: the GI50 in the assay on BT-549 and with NCI/ADR-RES was > 100 µM (inactive) each time.

Regarding `Cc1ccc(-c2cn3c(nc4ccccc43)c(/C=C/c3ccco3)n2)cc1`, the GI50 in the assay with BT-549 and in the assay with NCI/ADR-RES was > 100 µM (inactive) in each case. As to `CCOP(=O)(OCC)c1ccc(=O)[nH]c1-c1cccs1`, the GI50 in the assay on BT-549 and in the assay with NCI/ADR-RES was > 100 µM (inactive) in each case. As for `NCCCc1ccc2oc3ccccc3c2c1`, the GI50 with BT-549 is 19.9 µM (inactive); in the assay with NCI/ADR-RES, 22.3 µM (inactive).

`COc1cc(C2SC(=N)Nc3c2c(C)nn3C(=O)c2ccc(Cl)cc2)ccc1O` (stereo not drawn): the GI50 with BT-549 and in the assay with NCI/ADR-RES was > 10 µM (inactive) in each case.

As for `CC(C)(C)c1cc(OCc2nnc3sc(S)nn23)c(Cl)cc1OCc1nnc2sc(S)nn12`, the GI50 with BT-549 was 30.5 µM (inactive); in the assay with NCI/ADR-RES, 78.5 µM (inactive). `CC(=O)Oc1ccc2cc(Oc3ccccc3)c(=O)oc2c1`: the GI50 in the assay on BT-549 was 39.9 µM (inactive). For the compound `CCOC(=O)C1C(c2ccccc2)C2(C#N)C(=N)OC1(C)C2(C#N)C#N` (stereo not drawn), in the assay on NCI/ADR-RES, the GI50 was 27.1 µM (inactive). As for `CN(C)C1(N(C)C)Oc2c(c(=O)n(C)c(=O)n2C)C(c2ccc(Br)cc2)C1(F)F` (stereo not drawn), the GI50 with BT-549 and with NCI/ADR-RES was > 100 µM (inactive) in each case. As to `Cn1nc2ccc3nccc(N4CCN(CCO)CC4)c3c2n1`, the GI50 in the assay on BT-549 was > 100 µM (inactive). `COc1c(-c2ccc(O)c(O)c2)oc2c(O)c(O)cc(O)c2c1=O`: the GI50 in the assay on BT-549 and in the assay on NCI/ADR-RES was > 100 µM (inactive) each time. Take `CCCCNS(=O)(=O)c1n[nH]c(=O)[nH]c1=O`: the GI50 in the assay on BT-549 and in the assay on NCI/ADR-RES was > 100 µM (inactive) in each case. Turning to `Cc1ccc(/C=N\NC(=O)c2ccncc2)s1`, the GI50 in the assay on BT-549 and with NCI/ADR-RES was > 100 µM (inactive) throughout. Regarding `CC1OC(n2cc(F)c(=O)[nH]c2=O)C(O[Si](C)(C)C(C)(C)C)C1O[Si](C)(C)C(C)(C)C` (stereo not drawn), the GI50 in the assay on BT-549 was 13.4 µM (inactive); in the assay with NCI/ADR-RES it was 12.7 µM (inactive).

Turning to `CC1Cc2cc(O)c(O)cc2-c2cc(O)c(O)cc2CC1C` (stereo not drawn), the GI50 in the assay with NCI/ADR-RES was 12.6 µM (inactive). Turning to `Cc1cc(C#N)c[n+](C)c1`, the GI50 in the assay with BT-549 and with NCI/ADR-RES was > 100 µM (inactive) in each case. As for `CCOC(=O)NC(Nc1ccc(S(=O)(=O)Nc2nc(C)cc(C)n2)cc1)(C(=O)OCC)C(F)(F)F` (stereo not drawn), the GI50 in the assay with BT-549 is > 100 µM (inactive). `C1=C[C@]2(CCC13OCCO3)COc1ccccc12`: the GI50 in the assay on NCI/ADR-RES is 27.4 µM (inactive). As for `CN(C)c1ccc(/C=N/c2ccc(-c3nc4ccccc4[nH]3)cc2)cc1`, the results for the GI50 in the assay on BT-549 and in the assay with NCI/ADR-RES were 19.3 µM (inactive) and 1.09 µM (active), respectively. Turning to `COc1ccc(CN/C=N/C(C#N)=C(\N)C#N)cc1OC`, the GI50 was 72.3 µM (inactive) in the assay on BT-549 and > 100 µM (inactive) with NCI/ADR-RES. Consider `O=C(O)CCC(NC(=O)c1ccc(Nc2nc3ccccc3nc2C(=O)O)cc1)C(=O)O` (stereo not drawn), for which the GI50 in the assay on BT-549 and in the assay on NCI/ADR-RES was > 100 µM (inactive) each time. `O=C1CSC(=S)N1c1ccco1`: the GI50 in the assay on BT-549 is 16.3 µM (inactive); in the assay on NCI/ADR-RES it was 37.9 µM (inactive). Regarding `COc1cccc(/N=N/C(=N\NC(=O)c2ccc(C)cc2)c2ccc(N(CCC#N)CCC#N)cc2C)c1`, the GI50 with BT-549 was 71 µM (inactive); with NCI/ADR-RES, > 100 µM (inactive). `N=C(N)SCCON1C(=O)c2ccccc2C1=O`: the GI50 with BT-549 and in the assay with NCI/ADR-RES was > 100 µM (inactive) each time. `CC1=C(OC2OC(CO)C(O)C(O)C2O)C(=O)C[C@H]2C1=CC[C@@H]1[C@@]2(C)C(=O)C[C@]2(C)[C@@H]([C@@](C)(O)C(=O)CCC(C)(C)O)[C@H](O)C[C@@]12C` (stereo partly drawn): the GI50 with BT-549 and in the assay with NCI/ADR-RES was > 100 µM (inactive) throughout. Consider `Cc1ccc2nc(Cl)c(/C=N/N3C(=O)/C(=C/Cc4ccco4)N=C3c3ccccc3)cc2c1`, for which the results for the GI50 in the assay on BT-549 and in the assay with NCI/ADR-RES were 29.7 µM (inactive) and 28.4 µM (inactive), respectively. The corresponding values for `CC1=NN=C(N)N/C1=C\C(Sc1ccc(Cl)cc1)c1ccc(Cl)cc1Cl` (stereo not drawn) are 20 µM (inactive) and 17.6 µM (inactive). The corresponding values for `O=[N+]([O-])c1ccc2nc3ccccc3cc2c1` are 4.05 µM (inactive) and 1.51 µM (inactive). Regarding `CCCN(CCC)C(=O)c1c([N+](=O)[O-])cc(C(F)(F)F)cc1[N+](=O)[O-]`, the GI50 is 35.4 µM (inactive) in the assay on DMS-273, 30.4 µM (inactive) in the assay with LXFL 529 and 22.6 µM (inactive) with KM-20L2. As to `Cc1ccc(NC(Nc2ccc(C)cc2C)=C(C(Cl)=C(Cl)Cl)[N+](=O)[O-])c(C)c1`, the GI50 was 14.2 µM (inactive) in the assay with BT-549 and 7.21 µM (inactive) in the assay with NCI/ADR-RES. The corresponding values for `Cc1ccc(C)c(N2C(=O)C(=O)c3c(C)ccc(C)c32)c1` are 19.5 µM (inactive) and 23.6 µM (inactive).

As to `CC(NC(=O)OCc1ccccc1)NC(=O)C(CC(=O)OC(C)(C)C)NC(=O)OC(C)(C)C` (stereo not drawn), the GI50 in the assay on BT-549 and in the assay on NCI/ADR-RES was > 100 µM (inactive) in each case. Consider `CCOC(=O)c1[nH]c2nc(SC)nc(NC)c2c1N`, for which the GI50 with BT-549 was > 100 µM (inactive); in the assay with NCI/ADR-RES it was 59.6 µM (inactive). For `C[C@@]12C[C@@H](c3ccccc3O1)N1CCSC1=N2`, the GI50 in the assay with BT-549 and with NCI/ADR-RES was > 100 µM (inactive) throughout. In the case of `O=C(Nc1ccccc1)c1nn(-c2cc(S(=O)(=O)O)c([N+](=O)[O-])cc2Cl)[n+](-c2cc(S(=O)(=O)[O-])c([N+](=O)[O-])cc2Cl)n1`, in the assay with NCI/ADR-RES, the GI50 is > 100 µM (inactive). On to `C/C(=N\NC(=O)c1ccncc1)c1ccccc1F`, for which, in the assay on NCI/ADR-RES, the GI50 is > 10 µM (inactive). On to `CCC(C)C1NC(=O)C2CCCN2C(=O)C(CC(C)C)OC(=O)CCNC(=O)C(C)N(C)C(=O)C(C(C)C)N(C)C1=O` (stereo not drawn) (cyclo([ξLac(3-iPr)]PI[NMeV][NMeA][βAla]); configuration not given here), for which the GI50 with BT-549 is > 26.1 µM (inactive); with NCI/ADR-RES, 16.1 µM (inactive). The corresponding values for `CC(C)(Sc1cc(C(C)(C)C)c(O)c(C(C)(C)C)c1)Sc1cc(C(C)(C)C)c(O)c(C(C)(C)C)c1` [PROBUCOL] are > 100 µM (inactive) and > 100 µM (inactive).

Source of the values: ChEMBL document CHEMBL1201862, “PubChem BioAssay data set” (2004).
